Measured values from the NIST ThermoML archive (doi:10.1016/j.jct.2016.03.026).
Where “and” joins values, the source holds several entries; their conditions need not be identical. Equal values may be shown once.

Assay: xn = mol fraction of the nth substance listed
Settings: Fluid (supercritical or subcritical phases), Frequency=5 MHz, Pulse-echo method

O=C=O [carbon dioxide] + CO
Settings	speed of sound
298.13 K, 40050 kPa, x1 = 0.7534	817.8 m/s
298.13 K, 44960 kPa, x1 = 0.925	802 m/s
298.13 K, 44980 kPa, x1 = 0.925	802.5 m/s
298.13 K, 45000 kPa, x1 = 0.8502	812.9 m/s
298.13 K, 45000 kPa, x1 = 0.925	803.5 m/s
298.13 K, 45020 kPa, x1 = 0.7534	848.9 m/s
298.13 K, 45020 kPa, x1 = 0.925	803 m/s
298.13 K, 49980 kPa, x1 = 0.925	832.4 m/s and 833.5 m/s
298.13 K, 49990 kPa, x1 = 0.925	832.8 m/s
298.13 K, 50010 kPa, x1 = 0.925	833.6 m/s
298.13 K, 50070 kPa, x1 = 0.7534	878.2 m/s
298.13 K, 50080 kPa, x1 = 0.8502	843 m/s
298.13 K, 54890 kPa, x1 = 0.7534	904.5 m/s
298.13 K, 54910 kPa, x1 = 0.8502	869.9 m/s
298.13 K, 54940 kPa, x1 = 0.925	860.9 m/s
298.13 K, 54950 kPa, x1 = 0.925	860.2 m/s
298.13 K, 54970 kPa, x1 = 0.925	861.2 m/s
298.13 K, 55000 kPa, x1 = 0.925	860.7 m/s
298.13 K, 59950 kPa, x1 = 0.8502	896.4 m/s
298.13 K, 59970 kPa, x1 = 0.925	886.8 m/s
298.13 K, 60000 kPa, x1 = 0.925	887 m/s
298.13 K, 60010 kPa, x1 = 0.925	887.7 m/s
298.13 K, 60020 kPa, x1 = 0.925	887.7 m/s
298.13 K, 60230 kPa, x1 = 0.7534	932.1 m/s
298.13 K, 64680 kPa, x1 = 0.7534	953.8 m/s
298.13 K, 64950 kPa, x1 = 0.925	912 m/s
298.13 K, 64960 kPa, x1 = 0.925	911.8 m/s
298.13 K, 64990 kPa, x1 = 0.925	912.4 m/s
298.13 K, 65010 kPa, x1 = 0.925	911.9 m/s
298.13 K, 65100 kPa, x1 = 0.8502	922 m/s
298.13 K, 69930 kPa, x1 = 0.8502	944.8 m/s
298.13 K, 69960 kPa, x1 = 0.925	935.2 m/s
298.13 K, 69970 kPa, x1 = 0.925	935.8 m/s
298.13 K, 69980 kPa, x1 = 0.925	935.3 m/s
298.13 K, 70000 kPa, x1 = 0.925	936 m/s
298.13 K, 70030 kPa, x1 = 0.7534	978.8 m/s
298.13 K, 74960 kPa, x1 = 0.925	957.7 m/s
298.13 K, 74970 kPa, x1 = 0.925	957.9 m/s and 958.4 m/s
298.13 K, 75000 kPa, x1 = 0.925	958.5 m/s
298.13 K, 75120 kPa, x1 = 0.8502	968.2 m/s
298.13 K, 75550 kPa, x1 = 0.7534	1003.2 m/s
298.13 K, 79950 kPa, x1 = 0.925	979.9 m/s
298.13 K, 79970 kPa, x1 = 0.925	979.7 m/s
298.13 K, 79990 kPa, x1 = 0.8502	989 m/s
298.13 K, 79990 kPa, x1 = 0.925	979.4 m/s
298.13 K, 80530 kPa, x1 = 0.7534	1024.4 m/s
298.13 K, 89880 kPa, x1 = 0.8502	1029.2 m/s
298.13 K, 89960 kPa, x1 = 0.925	1019.7 m/s
298.13 K, 89980 kPa, x1 = 0.925	1020.4 m/s
298.13 K, 90000 kPa, x1 = 0.925	1020 m/s and 1020.4 m/s
298.13 K, 90430 kPa, x1 = 0.7534	1064.1 m/s
298.13 K, 99830 kPa, x1 = 0.7534	1098.9 m/s
298.13 K, 99970 kPa, x1 = 0.925	1057.9 m/s
298.13 K, 99990 kPa, x1 = 0.925	1057.5 m/s
298.13 K, 100010 kPa, x1 = 0.8502	1067.3 m/s
298.13 K, 100010 kPa, x1 = 0.925	1057.5 m/s
298.13 K, 100040 kPa, x1 = 0.925	1057.3 m/s
298.13 K, 109890 kPa, x1 = 0.8502	1102.7 m/s
298.13 K, 109950 kPa, x1 = 0.925	1092.7 m/s
298.13 K, 109980 kPa, x1 = 0.925	1093.2 m/s
298.13 K, 109990 kPa, x1 = 0.925	1092.8 m/s and 1093.2 m/s
298.13 K, 110320 kPa, x1 = 0.7534	1136.1 m/s
298.13 K, 119500 kPa, x1 = 0.8502	1135.1 m/s
298.13 K, 119930 kPa, x1 = 0.925	1126 m/s
298.13 K, 119960 kPa, x1 = 0.925	1126.1 m/s
298.13 K, 119990 kPa, x1 = 0.925	1125.8 m/s
298.13 K, 120000 kPa, x1 = 0.925	1126 m/s
298.13 K, 120120 kPa, x1 = 0.7534	1168.5 m/s
298.13 K, 129960 kPa, x1 = 0.925	1157.1 m/s
298.13 K, 129970 kPa, x1 = 0.925	1157.2 m/s and 1157.6 m/s
298.13 K, 130000 kPa, x1 = 0.925	1157.5 m/s
298.13 K, 139110 kPa, x1 = 0.7534	1226.8 m/s
298.13 K, 139980 kPa, x1 = 0.925	1186.8 m/s and 1187.3 m/s
298.13 K, 139990 kPa, x1 = 0.925	1187.1 m/s
298.13 K, 140030 kPa, x1 = 0.925	1187.4 m/s
298.13 K, 140060 kPa, x1 = 0.8502	1198.2 m/s
298.13 K, 149950 kPa, x1 = 0.925	1215.3 m/s and 1215.7 m/s
298.13 K, 149960 kPa, x1 = 0.925	1215.5 m/s
298.13 K, 149990 kPa, x1 = 0.925	1215.1 m/s
298.13 K, 159590 kPa, x1 = 0.7534	1284.3 m/s
298.13 K, 159960 kPa, x1 = 0.925	1242.8 m/s
298.13 K, 159970 kPa, x1 = 0.925	1242.8 m/s
298.13 K, 159980 kPa, x1 = 0.925	1242.2 m/s
298.13 K, 159990 kPa, x1 = 0.925	1242.6 m/s
298.13 K, 160550 kPa, x1 = 0.8502	1255.2 m/s
298.13 K, 169970 kPa, x1 = 0.925	1268.9 m/s
298.13 K, 169980 kPa, x1 = 0.925	1268.9 m/s
298.13 K, 169990 kPa, x1 = 0.925	1268.1 m/s
298.13 K, 170010 kPa, x1 = 0.925	1268.7 m/s
298.13 K, 178270 kPa, x1 = 0.8502	1301.3 m/s
298.13 K, 179990 kPa, x1 = 0.925	1293.2 m/s
298.13 K, 180020 kPa, x1 = 0.925	1293.8 m/s and 1294 m/s
298.13 K, 180060 kPa, x1 = 0.925	1294.1 m/s
298.13 K, 180370 kPa, x1 = 0.7534	1338.1 m/s
298.13 K, 189940 kPa, x1 = 0.925	1316.8 m/s
298.13 K, 189950 kPa, x1 = 0.925	1317.9 m/s
298.13 K, 189970 kPa, x1 = 0.925	1317.8 m/s
298.13 K, 190010 kPa, x1 = 0.925	1317.9 m/s
298.14 K, 44940 kPa, x1 = 0.9803	798 m/s
298.14 K, 50050 kPa, x1 = 0.9803	829.6 m/s
298.14 K, 54980 kPa, x1 = 0.9803	857.8 m/s
298.14 K, 60140 kPa, x1 = 0.9803	885.4 m/s
298.14 K, 64990 kPa, x1 = 0.9803	909.9 m/s
298.14 K, 70210 kPa, x1 = 0.9803	935 m/s
298.14 K, 75300 kPa, x1 = 0.9803	958.1 m/s
298.14 K, 80240 kPa, x1 = 0.9803	979.6 m/s
298.14 K, 89800 kPa, x1 = 0.9803	1018.7 m/s
298.14 K, 100450 kPa, x1 = 0.9803	1059.1 m/s
298.14 K, 109890 kPa, x1 = 0.9803	1092.5 m/s
298.14 K, 120160 kPa, x1 = 0.9803	1126.5 m/s
298.14 K, 130400 kPa, x1 = 0.9803	1158.4 m/s
298.14 K, 139810 kPa, x1 = 0.9803	1185.8 m/s
298.14 K, 150170 kPa, x1 = 0.9803	1215.7 m/s
298.14 K, 160470 kPa, x1 = 0.9803	1243.6 m/s
304.19 K, 24950 kPa, x1 = 0.97	621 m/s
304.19 K, 29960 kPa, x1 = 0.97	668.7 m/s
304.19 K, 34880 kPa, x1 = 0.97	709.6 m/s
304.19 K, 39930 kPa, x1 = 0.97	747.2 m/s
304.19 K, 44970 kPa, x1 = 0.97	781.3 m/s
304.19 K, 50020 kPa, x1 = 0.97	812.8 m/s
304.19 K, 54970 kPa, x1 = 0.97	841.5 m/s
304.19 K, 59970 kPa, x1 = 0.97	868.6 m/s
